Holding throughout (assay type): cell-based
The target of one experiment is T1, TRPM8 (Homo sapiens, UniProt Q7Z2W7).
T1 construct: expressed in transfected cells
The experiment in a line: Calcium mobilization assay (HTS and dose-response) on HEK-293/hTRPM8 cells. Particulars: for Max inhibition: HTS campaign, Cooling agent 10 30 μM, %inhibition values obtained at 10 mM (so in the source). Here is the method:
All experiments were performed on HEK-293/hTRPM8 cells stably transfected with the human TRPM8 gene, except for site-directed mutagenesis analysis, which was performed on transient transfectants. In details, HEK-293 cells (ATCC, Manassas, Virginia) were transfected with the pcDNA3/hTRPM8 vector by electroporation (300 Volts, 950 µF) then selected with medium containing 0,8 mg/ml G418 for 10–15 days. Then the stable transfected pool underwent two rounds of limiting dilutions, in eight 96 well plates at a cell density of 1 cell/well, in order to obtain pure clones. The best responder clone was selected based on its response to 1 mM menthol in calcium mobilization experiments. HEK-293/hTRPM8 cells were maintained in EMEM (Minimum Essential Medium Eagle with Earl’s salts Balanced Salt Solution, LONZA) supplemented with 2 mM Ultraglutamine1 (Lonza), 1% Penicillin/Streptomycin (LONZA), 10% of Fetal Bovine Serum (Euroclone) and 0,4 mg/mL G418 (InvivoGen).
For calcium mobilization assays, cells were seeded at 10,000 cells/well in 384-well plates coated with poly-D-lysine (MATRIX black/clear bottom #4332-CPL, Thermo Scientific, Waltham, MA, USA) in complete medium.Twenty-four hours after seeding, the plates were washed with Tyrode’s buffer with a Bio-Tek-ELx405 Microplate Washer (Merck Millipore; Billerica, MA, USA), and then 10 µl/well of a solution containing the fluorescent Ca^2+ indicator Fluo-4 NW dye was added. Cells were incubated for 1 h at room temperature before test compounds were added at 3X the concentration with respect to the final wanted concentration to be tested with a FLIPR TETRA system (Molecular Devices, Sunnyvale, CA, USA). Calcium mobilization was monitored over a period of 5 min. A second injection of 10 µl/well of a reference agonist (icilin or Cooling agent 10) at 4X concentration in assay buffer was performed using the FLIPR TETRA system. Of note, for selectivity assays, the following agonists were used: 10 μM AITC (allyl isothiocyanate) for TRPA1; 100 nM Capsaicin for TRPV1; and 20 nM GSK1016790A for TRPV4.
After addition of the agonist, the fluorescence signal was recorded over the next 3 min. The bioactivity exerted by the compounds was expressed as a percentage of inhibition. The percentage scale is defined as follows: 100% inhibition was considered as the relative fluorescence units (RFUs) of the value of the MIN controls in the second injection (antagonist Capsazepine at IC100 = 50 µM) and 0% inhibition was considered as the RFU values of the value of the MAX controls in the second injection (Cooling agent 10 at EC80 = 30 µM). Data from four replicates were analyzed using GraphPad PRISM® software (version 5, GraphPad Software Inc.) to calculate the mean and standard error of the mean, to create sigmoidal concentration-response curves and to calculate IC50 values.

Another experiment concerns the target T2, TRPM8 Y745A (Homo sapiens, UniProt Q7Z2W7, Y745A).
T2 construct: expressed in transfected cells; host or cells: HEK-293, transient (Lipofectamine 2000)
In words: Calcium mobilization on transiently transfected TRPM8 Y745A mutant. Particulars: agonist calcium response. An excerpt:
(§1) Single point mutations were introduced in the hTRPM8-coding sequence, and the mutated TRPM8 was cloned as N-terminal c-myc tagged version into the pcDNA3 expression vector. This was done in that way that the single variations could be easily swapped from the myc-tagged expression construct into the non-tagged TRPM8 wild type expression construct.
(§2) The list of the variants is the following: variant 1, t2233g, a2234c (=Y745A); variant 2, a2236g, t2237c (=I746A); variant 3, a2395g, a2396c (=N799A) and variant 4, a2405c (D802A). The cloning project comprised three steps. First of all, a unique XhoI restriction site was inserted by site-directed mutagenesis (SDM) using DNA of the pcDNA3_TRPM8 construct as template. The 0.6 kb DNA fragment between the unique 5′ XhoI (introduced) and 3′ BamHI (already present) restriction sites comprised all positions of the four single point mutations and could be later used for their insertion as well as swapping between myc-tagged and non-tagged TRPM8 versions. In a second step, the c-myc tag sequence was introduced embedded within the TRPM8 coding sequence by PCR primers in two partially overlapping PCRs that were then joined by bridge PCR with the external 5′KpnI and internal 3′EcoRI primers and in the last step the point mutations 1 to 4 were inserted into pcDNA3_c-myc-TRPM8 by exchanging the wild type 5′XhoI-3′BamHI fragment (0.6 kb) with each of the corresponding variation fragment derived from synthetic DNA (provided by GeneArt, ThermoFisher Scientific).The myc-tagged constructs were transiently transfected in HEK-293 cells with Lipofectamine 2000 (Invitrogen) according to the manufacturer’s protocol. The pcDNA vectors containing the wt myc-tagged TRPM8 gene and the empty pcDNA3 (mock) were separately transfected into HEK-293 cells as controls. […] The obtained data from at least four wells (as replicates) were analyzed with GraphPad PRISM® software (version 5, GraphPad Software Inc.) to calculate the mean and standard error of the mean[58], to create sigmoidal concentration-response curves and to calculate IC50 values.
On the technique in general: A change in cytosolic calcium serves as a functional read-out for many receptors and channels.

The next experiment addresses T3, TRPM8 N799A (Homo sapiens, UniProt Q7Z2W7, N799A).
T3 construct: expressed in transfected cells; host or cells: HEK-293, transient (Lipofectamine 2000)
In words: Calcium mobilization on transiently transfected TRPM8 N799A mutant. Particulars: agonist calcium response, N799A.
From the text: as §1
(§3) The list of the variants is the following: variant 1, t2233g, a2234c (=Y745A); variant 2, a2236g, t2237c (=I746A); variant 3, a2395g, a2396c (=N799A) and variant 4, a2405c (D802A). The cloning project comprised three steps. First of all, a unique XhoI restriction site was inserted by site-directed mutagenesis (SDM) using DNA of the pcDNA3_TRPM8 construct as template. The 0.6 kb DNA fragment between the unique 5′ XhoI (introduced) and 3′ BamHI (already present) restriction sites comprised all positions of the four single point mutations and could be later used for their insertion as well as swapping between myc-tagged and non-tagged TRPM8 versions. In a second step, the c-myc tag sequence was introduced embedded within the TRPM8 coding sequence by PCR primers in two partially overlapping PCRs that were then joined by bridge PCR with the external 5′KpnI and internal 3′EcoRI primers and in the last step the point mutations 1 to 4 were inserted into pcDNA3_c-myc-TRPM8 by exchanging the wild type 5′XhoI-3′BamHI fragment (0.6 kb) with each of the corresponding variation fragment derived from synthetic DNA (provided by GeneArt, ThermoFisher Scientific).The myc-tagged constructs were transiently transfected in HEK-293 cells with Lipofectamine 2000 (Invitrogen) according to the manufacturer’s protocol. The pcDNA vectors containing the wt myc-tagged TRPM8 gene and the empty pcDNA3 (mock) were separately transfected into HEK-293 cells as controls. Cells were transfected and seeded on the same day at 17,500 cells/well in poly-D-lysine-coated 384-well plates (MATRIX #4332-CPL). Twenty-four hours after seeding, the activity of transfected TRPM8 receptors was tested using the calcium mobilization assay as described above. The analysis was performed on the basis of ΔF/F° (normalized MAX-MIN), where ΔF is the MAX between time points 117 and 182 minus the MIN between time points TP114 and TP116, and F° is the basal signal at time point TP0. The obtained data from at least four wells (as replicates) were analyzed with GraphPad PRISM® software (version 5, GraphPad Software Inc.) to calculate the mean and standard error of the mean[58], to create sigmoidal concentration-response curves and to calculate IC50 values.

The next experiment has as its target T4, TRPM8 I746A (Homo sapiens, UniProt Q7Z2W7, I746A).
T4 construct: expressed in transfected cells; host or cells: HEK-293, transient (Lipofectamine 2000)
In words: Calcium mobilization on transiently transfected TRPM8 I746A mutant. Particulars: agonist calcium response, I746A.
From the text: as §1, §3

The target in another experiment is T5, TRPM8 D802A (Homo sapiens, UniProt Q7Z2W7, D802A).
T5 construct: expressed in transfected cells; host or cells: HEK-293, transient (Lipofectamine 2000)
The experiment in a line: Calcium mobilization on transiently transfected TRPM8 D802A mutant. Particulars: agonist calcium response, D802A.
From the text: as §1, §2

The target of the next experiment is T6, wt TRPM8 (Homo sapiens, UniProt Q7Z2W7).
T6 construct: expressed in transfected cells; host or cells: HEK-293, transient (Lipofectamine 2000)
In words: Calcium mobilization on HEK-293 cells transiently transfected with wt myc-tagged TRPM8. Particulars: agonist calcium response, wt; read-out: pIC50 of the agonist (agonist dose response), wt TRPM8 (converted).
From the text: as §1
The list of the variants is the following: variant 1, t2233g, a2234c (=Y745A); variant 2, a2236g, t2237c (=I746A); variant 3, a2395g, a2396c (=N799A) and variant 4, a2405c (D802A). The cloning project comprised three steps. First of all, a unique XhoI restriction site was inserted by site-directed mutagenesis (SDM) using DNA of the pcDNA3_TRPM8 construct as template. The 0.6 kb DNA fragment between the unique 5′ XhoI (introduced) and 3′ BamHI (already present) restriction sites comprised all positions of the four single point mutations and could be later used for their insertion as well as swapping between myc-tagged and non-tagged TRPM8 versions. […] The obtained data from at least four wells (as replicates) were analyzed with GraphPad PRISM® software (version 5, GraphPad Software Inc.) to calculate the mean and standard error of the mean[58], to create sigmoidal concentration-response curves and to calculate IC50 values.

The values below come from paper PMC5591244, “Novel selective, potent naphthyl TRPM8 antagonists identified through a combined ligand- and structure-based virtual screening approach” (Scientific Reports, 2017).

Each structure is given as a SMILES string.

What is called EC80 is the concentration needed for an effect of 80%.

T4 sequence (Q7Z2W7 whole entry I746A): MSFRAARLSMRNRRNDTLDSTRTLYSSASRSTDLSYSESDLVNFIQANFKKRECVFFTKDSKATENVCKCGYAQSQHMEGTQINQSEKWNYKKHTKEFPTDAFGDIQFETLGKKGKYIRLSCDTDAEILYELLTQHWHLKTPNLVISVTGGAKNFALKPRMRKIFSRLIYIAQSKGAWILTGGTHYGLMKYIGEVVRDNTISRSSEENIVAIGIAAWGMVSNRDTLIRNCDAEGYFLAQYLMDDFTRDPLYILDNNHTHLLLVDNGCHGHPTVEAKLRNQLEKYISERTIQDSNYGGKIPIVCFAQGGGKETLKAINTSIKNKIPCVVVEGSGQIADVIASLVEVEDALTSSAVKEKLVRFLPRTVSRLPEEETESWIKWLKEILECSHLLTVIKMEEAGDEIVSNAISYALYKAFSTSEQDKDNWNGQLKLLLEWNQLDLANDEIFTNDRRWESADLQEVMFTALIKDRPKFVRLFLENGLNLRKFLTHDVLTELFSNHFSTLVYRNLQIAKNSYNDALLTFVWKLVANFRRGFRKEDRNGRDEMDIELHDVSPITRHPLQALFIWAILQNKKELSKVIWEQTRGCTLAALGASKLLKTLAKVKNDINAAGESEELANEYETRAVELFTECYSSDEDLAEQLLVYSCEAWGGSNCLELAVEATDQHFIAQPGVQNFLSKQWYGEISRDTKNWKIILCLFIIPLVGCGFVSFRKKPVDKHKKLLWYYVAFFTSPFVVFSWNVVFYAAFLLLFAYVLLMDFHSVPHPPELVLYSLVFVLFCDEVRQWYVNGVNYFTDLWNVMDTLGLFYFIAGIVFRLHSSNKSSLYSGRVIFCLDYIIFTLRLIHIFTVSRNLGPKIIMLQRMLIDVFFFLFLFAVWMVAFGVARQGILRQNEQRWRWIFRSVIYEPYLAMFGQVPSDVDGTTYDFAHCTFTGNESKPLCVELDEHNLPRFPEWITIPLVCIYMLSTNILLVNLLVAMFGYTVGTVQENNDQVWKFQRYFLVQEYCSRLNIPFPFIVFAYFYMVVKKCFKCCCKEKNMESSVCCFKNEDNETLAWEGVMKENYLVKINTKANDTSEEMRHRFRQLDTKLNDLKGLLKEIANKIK
T1 sequence (Q7Z2W7 whole entry): as the sequence (Q7Z2W7 whole entry I746A) above, with A746I counted along it
T3 sequence (Q7Z2W7 whole entry N799A): as the sequence (Q7Z2W7 whole entry I746A) above, with A746I, N799A counted along it
T2 sequence (Q7Z2W7 whole entry Y745A): as the sequence (Q7Z2W7 whole entry I746A) above, with Y745A, A746I counted along it
T5 sequence (Q7Z2W7 whole entry D802A): as the sequence (Q7Z2W7 whole entry I746A) above, with A746I, D802A counted along it
T6 sequence (Q7Z2W7 whole entry): as the sequence (Q7Z2W7 whole entry I746A) above, with A746I counted along it

Regarding `Oc1cc2c(cc1O)CN(C(=S)NCCc1ccc(Cl)cc1)CCC2` [Capsazepine, reference compound], the IC100 on TRPM8 (MIN control antagonist) is 50 µM.
Take `O=C(NCOCc1ccc2ccccc2c1)c1cccnc1` [Compound 2]: the Max inhibition at TRPM8 amounted to 7.92%.
For the compound `O=C(COc1ccc2ccccc2c1)NCc1cccnc1` [Compound 3], at TRPM8, the Max inhibition is on record as 0.00%.
`O=C(NCOCc1ccc2ccccc2c1)c1cncc(Br)c1` [Compound 4]: the Max inhibition at TRPM8 was 0.00%.
`CC1CCC(C(C)C)C(OCC(O)CO)C1` (stereo not drawn) [Cooling agent 10]: the “Agonist activity on Y745A mutant (words)” value at TRPM8 Y745A is on record as “completely abolished the activation”. Besides, the EC80 on TRPM8 (MAX control agonist) is 30000 nM. Also, the “Agonist activity on N799A mutant (words)” value on TRPM8 N799A is recorded as “did not affect either maximal TRPM8 activation or EC50”. Besides, the figures for the “Agonist activity on I746A mutant (words)” value on TRPM8 I746A and at TRPM8 I746A (listed as Cooling Agent 10) were “minimal residual activation” and “strongly reduced agonist activity”, respectively.
Consider `O=C1NC(c2cccc([N+](=O)[O-])c2)=CCN1c1ccccc1O` [Icilin, icilin], for which the figures for the “Agonist activity on Y745A mutant (words)” value at TRPM8 Y745A and at TRPM8 Y745A (listed as icilin) were “abrogated agonist activity” and “completely abolished the activation”, respectively. For the same compound, the “Agonist activity on D802A mutant (words)” value is “abrogated agonist activity” on TRPM8 D802A and “completely abolished TRPM8 activation” at TRPM8 D802A (listed as icilin). For the same compound, the EC50 was 251 nM on wt TRPM8 and 126 nM at TRPM8 I746A (read-out: pIC50 of the agonist (agonist dose response), I746A (converted)). Further, the “Agonist activity on N799A mutant (words)” value is listed as “abrogated agonist activity” at TRPM8 N799A and “completely abolished TRPM8 activation” at TRPM8 N799A (listed as icilin). Besides, the “Agonist activity on I746A mutant (words)” value on TRPM8 I746A is “minimal residual activation”.
